system: BHK-21 cells; assay: Anti-fibrosis activity test: inhibition of BHK-21 cell proliferation (CCK-8); assay type: cell-based; conditions: Mesocricetus auratus, BHK-21, 48 h, 48 h, CCK-8
Method in brief: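 Cells plated 2×10^4 cells/mL; 24 h attach; compound dilutions, triplicate, 48 h, 37° C/5% CO2; CCK-8 2 h; A450; IR = (1−Ai/Ao)×100%; IC50 by curve fit.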

Row | SMILES | IC50 [mM]
1 | Cc1cccc2[nH]c3c(c(=O)c12)-c1cccn1C3=O [Compound 776a, 10-Methyl-5H-pyrrolizino[2,1-b]quinoline-5,11(6H)-dione] | < 0.05
2 | Cc1ccn2c1-c1c(nc3ccccc3c1O)C2=O [Compound 797b, 11-hydroxy-1-methyl-5H-pyrrolizino[2,1-b]quinolin-5-one] | 0.05 to 5
3 | O=C1c2c(n(CCCN3CCCCC3)c3ccccc3c2=O)-c2cccn21 [Compound 666a, 4-(3-(Piperidin-1-yl)propyl)-9H-pyrrolizino[1,2-b]quinoline-9,10(4H)-dione] | 0.05 to 5

same assay, conditions: Mesocricetus auratus, BHK-21, 48 h, CCK-8, 48 hours after administration

Row | SMILES | IC50 [mM]
4 | O=C1c2c(n(Cc3ccc(F)c(Cl)c3)c3ccccc3c2=O)-c2cccn21 [Compound 603a, 4-(3-Chloro-4-fluorobenzyl)-9H-pyrrolizino[1,2-b]quinoline-9,10(4H)-dione] | < 0.05

system: human lung fibroblasts HFL1; assay: Anti-fibrosis activity test: inhibition of proliferation of human lung fibroblasts HFL1 (CCK-8); assay type: cell-based; conditions: Homo sapiens, HFL1, 48 h, HFL1 cells, 48 h, CCK-8
Method in brief: (§1)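 Seed 2×10^4 cells/mL; adhere 24 h, 37° C/5% CO2. Compounds, serial concentrations, triplicate, 48 h. CCK-8 2 h, A450. IR=(1−Ai/Ao)×100% vs blank; IC50 fitted. Pirfenidone as positive control.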

Row | SMILES | IC50 [mM]
5 | Cc1cccc2[nH]c3c(c(=O)c12)-c1cccn1C3=O [Compound 776a, 10-Methyl-5H-pyrrolizino[2,1-b]quinoline-5,11(6H)-dione] | 0.05 to 5
6 | Cc1ccn2c1-c1c(nc3ccccc3c1O)C2=O [Compound 797b, 11-hydroxy-1-methyl-5H-pyrrolizino[2,1-b]quinolin-5-one] | 0.05 to 5
7 | O=C1c2c(n(CCCN3CCCCC3)c3ccccc3c2=O)-c2cccn21 [Compound 666a, 4-(3-(Piperidin-1-yl)propyl)-9H-pyrrolizino[1,2-b]quinoline-9,10(4H)-dione] | 0.05 to 5

same assay, conditions: Homo sapiens, HFL1, 48 h, human lung fibroblasts HFL1, CCK-8, 48 hours

Row | SMILES | IC50 [mM]
8 | O=C1c2c(n(Cc3ccc(F)c(Cl)c3)c3ccccc3c2=O)-c2cccn21 [Compound 603a, 4-(3-Chloro-4-fluorobenzyl)-9H-pyrrolizino[1,2-b]quinoline-9,10(4H)-dione] | 0.05 to 5

system: human hepatic stellate cells LX-2; assay: Anti-fibrosis activity test: inhibition of proliferation of human hepatic stellate cells LX-2 (CCK-8); assay type: cell-based; conditions: Homo sapiens, 48 h, human hepatic stellate cells LX-2, CCK-8, 48 hours
Method in brief: as §1

Row | SMILES | IC50 [mM]
9 | O=C1c2c(n(Cc3ccc(F)c(Cl)c3)c3ccccc3c2=O)-c2cccn21 [Compound 603a, 4-(3-Chloro-4-fluorobenzyl)-9H-pyrrolizino[1,2-b]quinoline-9,10(4H)-dione] | 0.05 to 5

same assay, conditions: Homo sapiens, LX-2, 48 h, LX-2 cells, 48 h, CCK-8

Row | SMILES | IC50 [mM]
10 | Cc1cccc2[nH]c3c(c(=O)c12)-c1cccn1C3=O [Compound 776a, 10-Methyl-5H-pyrrolizino[2,1-b]quinoline-5,11(6H)-dione] | 0.05 to 5
11 | Cc1ccn2c1-c1c(nc3ccccc3c1O)C2=O [Compound 797b, 11-hydroxy-1-methyl-5H-pyrrolizino[2,1-b]quinolin-5-one] | 0.05 to 5
12 | O=C1c2c(n(CCCN3CCCCC3)c3ccccc3c2=O)-c2cccn21 [Compound 666a, 4-(3-(Piperidin-1-yl)propyl)-9H-pyrrolizino[1,2-b]quinoline-9,10(4H)-dione] | 0.05 to 5

system: human fibrosarcoma cells HT-1080; assay: Anti-fibrosis activity test: inhibition of proliferation of human fibrosarcoma cells HT-1080 (CCK-8); assay type: cell-based; conditions: Homo sapiens, HT-1080, 48 h, HT-1080 cells, 48 h, CCK-8
Method in brief: as §1

Row | SMILES | IC50 [mM]
13 | Cc1cccc2[nH]c3c(c(=O)c12)-c1cccn1C3=O [Compound 776a, 10-Methyl-5H-pyrrolizino[2,1-b]quinoline-5,11(6H)-dione] | 0.05 to 5
14 | Cc1ccn2c1-c1c(nc3ccccc3c1O)C2=O [Compound 797b, 11-hydroxy-1-methyl-5H-pyrrolizino[2,1-b]quinolin-5-one] | 0.05 to 5
15 | O=C1c2c(n(CCCN3CCCCC3)c3ccccc3c2=O)-c2cccn21 [Compound 666a, 4-(3-(Piperidin-1-yl)propyl)-9H-pyrrolizino[1,2-b]quinoline-9,10(4H)-dione] | 0.05 to 5

same assay, conditions: Homo sapiens, HT-1080, 48 h, human fibrosarcoma cells HT-1080, CCK-8, 48 hours

Row | SMILES | IC50 [mM]
16 | O=C1c2c(n(Cc3ccc(F)c(Cl)c3)c3ccccc3c2=O)-c2cccn21 [Compound 603a, 4-(3-Chloro-4-fluorobenzyl)-9H-pyrrolizino[1,2-b]quinoline-9,10(4H)-dione] | 0.05 to 5

system: human dermal fibroblasts CCC-ESF-1; assay: Anti-fibrosis activity test: inhibition of proliferation of human dermal fibroblasts CCC-ESF-1 (CCK-8); assay type: cell-based; conditions: Fibroblast; human dermal fibroblasts CCC-ESF-1, CCK-8, 48 hours
Method in brief: as §1

Row | SMILES | IC50 [mM]
17 | O=C1c2c(n(Cc3ccc(F)c(Cl)c3)c3ccccc3c2=O)-c2cccn21 [Compound 603a, 4-(3-Chloro-4-fluorobenzyl)-9H-pyrrolizino[1,2-b]quinoline-9,10(4H)-dione] | 0.05 to 5

same assay, conditions: Homo sapiens, Fibroblast; CCC-ESF-1 cells, 48 h, CCK-8

Row | SMILES | IC50 [mM]
18 | Cc1cccc2[nH]c3c(c(=O)c12)-c1cccn1C3=O [Compound 776a, 10-Methyl-5H-pyrrolizino[2,1-b]quinoline-5,11(6H)-dione] | 0.05 to 5
19 | Cc1ccn2c1-c1c(nc3ccccc3c1O)C2=O [Compound 797b, 11-hydroxy-1-methyl-5H-pyrrolizino[2,1-b]quinolin-5-one] | 0.05 to 5
20 | O=C1c2c(n(CCCN3CCCCC3)c3ccccc3c2=O)-c2cccn21 [Compound 666a, 4-(3-(Piperidin-1-yl)propyl)-9H-pyrrolizino[1,2-b]quinoline-9,10(4H)-dione] | 0.05 to 5

system: human embryonic lung fibroblast IMR-90; assay: Anti-fibrosis activity test: inhibition of proliferation of human embryonic lung fibroblast IMR-90 (CCK-8); assay type: cell-based; conditions: Homo sapiens; IMR-90 cells, 48 h, CCK-8
Method in brief: as §1

Row | SMILES | IC50 [mM]
21 | Cc1cccc2[nH]c3c(c(=O)c12)-c1cccn1C3=O [Compound 776a, 10-Methyl-5H-pyrrolizino[2,1-b]quinoline-5,11(6H)-dione] | 0.05 to 5
22 | Cc1ccn2c1-c1c(nc3ccccc3c1O)C2=O [Compound 797b, 11-hydroxy-1-methyl-5H-pyrrolizino[2,1-b]quinolin-5-one] | 0.05 to 5
23 | O=C1c2c(n(CCCN3CCCCC3)c3ccccc3c2=O)-c2cccn21 [Compound 666a, 4-(3-(Piperidin-1-yl)propyl)-9H-pyrrolizino[1,2-b]quinoline-9,10(4H)-dione] | 0.05 to 5

same assay, conditions: human embryonic lung fibroblast IMR-90, CCK-8, 48 hours

Row | SMILES | IC50 [mM]
24 | O=C1c2c(n(Cc3ccc(F)c(Cl)c3)c3ccccc3c2=O)-c2cccn21 [Compound 603a, 4-(3-Chloro-4-fluorobenzyl)-9H-pyrrolizino[1,2-b]quinoline-9,10(4H)-dione] | 0.05 to 5

system: cardiac fibroblast RAT-iCell-C002; assay: Anti-fibrosis activity test: inhibition of proliferation of cardiac fibroblast RAT-iCell-C002 (CCK-8); assay type: cell-based; conditions: Cardiac fibroblast, 48 h, RAT-iCell-C002 cells, CCK-8
Method in brief: as §1

Row | SMILES | IC50 [mM]
25 | Cc1cccc2[nH]c3c(c(=O)c12)-c1cccn1C3=O [Compound 776a, 10-Methyl-5H-pyrrolizino[2,1-b]quinoline-5,11(6H)-dione] | 0.05 to 5
26 | Cc1ccn2c1-c1c(nc3ccccc3c1O)C2=O [Compound 797b, 11-hydroxy-1-methyl-5H-pyrrolizino[2,1-b]quinolin-5-one] | 0.05 to 5
27 | O=C1c2c(n(CCCN3CCCCC3)c3ccccc3c2=O)-c2cccn21 [Compound 666a, 4-(3-(Piperidin-1-yl)propyl)-9H-pyrrolizino[1,2-b]quinoline-9,10(4H)-dione] | 0.05 to 5

same assay, conditions: Cardiac fibroblast, 48 h, cardiac fibroblast RAT-iCell-C002, CCK-8, 48 hours

Row | SMILES | IC50 [mM]
28 | O=C1c2c(n(Cc3ccc(F)c(Cl)c3)c3ccccc3c2=O)-c2cccn21 [Compound 603a, 4-(3-Chloro-4-fluorobenzyl)-9H-pyrrolizino[1,2-b]quinoline-9,10(4H)-dione] | 0.05 to 5

system: NF-κB; assay: Immunological activity test: inhibition of NF-κB activity; assay type: cell-based; conditions: initial concentration of 30 μM; a/b isomers given as first/second symbol; read-out: IC50 (μM), inhibitory activity against NF-κB
Method in brief: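 Parthenolide as positive control; starting test concentration 30 μM; inhibition of NF-κB activity analysed further to yield IC50.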

Row | SMILES | IC50 [µM]
29 | O=C1c2c(n(Cc3ccc(F)c(Cl)c3)c3ccccc3c2=O)-c2cccn21 [Compound 603a, 4-(3-Chloro-4-fluorobenzyl)-9H-pyrrolizino[1,2-b]quinoline-9,10(4H)-dione] | 1 to 10
30 | Cc1cccc2[nH]c3c(c(=O)c12)-c1cccn1C3=O [Compound 776a, 10-Methyl-5H-pyrrolizino[2,1-b]quinoline-5,11(6H)-dione] | 1 to 10
31 | Cc1ccn2c1-c1c(nc3ccccc3c1O)C2=O [Compound 797b, 11-hydroxy-1-methyl-5H-pyrrolizino[2,1-b]quinolin-5-one] | 0.1 to 1
32 | O=C1c2c(n(CCCN3CCCCC3)c3ccccc3c2=O)-c2cccn21 [Compound 666a, 4-(3-(Piperidin-1-yl)propyl)-9H-pyrrolizino[1,2-b]quinoline-9,10(4H)-dione] | 1 to 10

system: mouse macrophages (RAW264.7); assay: Lipopolysaccharide-induced NO secretion in macrophages (Griess); assay type: cell-based; conditions: Mus musculus, RAW264.7, 24 h, RAW264.7, LPS 1 μg/ml, a/b isomers given as first/second symbol, read-out: IC50 (μM), inhibition of lipopolysaccharide-induced NO secretion in macrophages
Method in brief: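 LPS 1 μg/ml, 24 h, RAW264.7 (DMEM/10% FBS); cpds at varied concs. Supernatant NO by Griess, A548; % inhibition vs blank medium.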

Row | SMILES | IC50 [µM]
33 | O=C1c2c(n(Cc3ccc(F)c(Cl)c3)c3ccccc3c2=O)-c2cccn21 [Compound 603a, 4-(3-Chloro-4-fluorobenzyl)-9H-pyrrolizino[1,2-b]quinoline-9,10(4H)-dione] | 1 to 10
34 | Cc1cccc2[nH]c3c(c(=O)c12)-c1cccn1C3=O [Compound 776a, 10-Methyl-5H-pyrrolizino[2,1-b]quinoline-5,11(6H)-dione] | 10 to 50
35 | Cc1ccn2c1-c1c(nc3ccccc3c1O)C2=O [Compound 797b, 11-hydroxy-1-methyl-5H-pyrrolizino[2,1-b]quinolin-5-one] | 1 to 10
36 | O=C1c2c(n(CCCN3CCCCC3)c3ccccc3c2=O)-c2cccn21 [Compound 666a, 4-(3-(Piperidin-1-yl)propyl)-9H-pyrrolizino[1,2-b]quinoline-9,10(4H)-dione] | 1 to 10

Reference: patent US11040028B2, “Penicinotam derivative, preparation method and use thereof” (OCEAN UNIVERSITY OF CHINA, priority 2017, dated 2021)
